Results from a compilation of properties of binary mixtures (doi:10.1021/je7001804).

Assay: xn = mol fraction of the nth substance listed
Conditions: 101 kPa

CC[n+]1ccn(C)c1.O=S(=O)([O-])C(F)(F)F + CCCO
speed of sound [m/s]
Conditions	278.15 K	288.15 K	298.15 K	308.15 K	318.15 K	328.15 K	338.15 K
x2 = 0.049	1475.1	1451.2	1428.3	1405.9	–	1362.5	1341.4
x2 = 0.1095	1465.8	1441.9	1419	–	1374.5	–	1331.7
x2 = 0.1497	1459	1435.5	1412.7	1390.3	1368.2	–	1325.3
x2 = 0.2004	1450.3	1426.7	–	–	1359.3	1337.6	1316.5
x2 = 0.3	1432.3	1408.4	1385.2	1362.3	1340	1317.9	1296.2
x2 = 0.3993	–	1388	1364.3	1341.1	1318.4	1295.9	1273.9
x2 = 0.499	1389.2	1364.6	1340.5	1316.9	1293.6	1270.7	1248.1
x2 = 0.6007	1363.1	1337.9	1313.4	1289.2	–	1241.7	1218.3
x2 = 0.6998	1335.8	–	1284.3	–	1234.2	1209.5	1185
x2 = 0.7996	1308.3	–	1253.7	1227	1200.5	1174.3	1148.2
x2 = 0.8496	1296	1267.3	1239.2	1211.4	1183.8	1156.5	1129.3
x2 = 0.8999	1286.3	1255.9	1226.3	1197.1	1168.1	1139.2	–
x2 = 0.9499	1279.8	1247.3	1215.6	–	–	–	1092

CC[n+]1ccn(C)c1.O=S(=O)([O-])C(F)(F)F + CCO
speed of sound [m/s]
Conditions	278.15 K	288.15 K	298.15 K	308.15 K	318.15 K	328.15 K
x2 = 0.0508	1475.9	1452.2	1429.4	1407	1385.2	1363.9
x2 = 0.0983	–	–	1422.7	1400.4	–	1357.6
x2 = 0.1483	1461.9	1438.3	–	1393.1	1371.1	1349.8
x2 = 0.198	–	1430.7	–	–	–	–
x2 = 0.3072	1435.9	–	1389.3	1366.7	1344.6	–
x2 = 0.4068	1416.2	1392.4	1369.2	1346.4	1323.9	1301.8
x2 = 0.4985	1394.8	1370.6	1346.9	1323.6	–	–
x2 = 0.5999	1366.8	–	1318	1294.2	–	1247.7
x2 = 0.6991	–	1308.5	1283.7	1259.2	1235.1	1211.2
x2 = 0.8001	–	–	1241.7	1215.7	1189.9	1164.3
x2 = 0.8497	1273.5	1245.6	1218.2	–	1164.7	1138.4
x2 = 0.9	1252.7	1223.1	–	–	1137.5	–
x2 = 0.9501	1233	1201.1	1170.1	1139.4	1109.1	1079.2

CC[n+]1ccn(C)c1.O=S(=O)([O-])C(F)(F)F + O
speed of sound [m/s]
Conditions	278.15 K	288.15 K	298.15 K	308.15 K	318.15 K	328.15 K	338.15 K
x1 = 0.0178	1510.5	1529	1541.8	1549.8	–	1553.1	1548.9
x2 = 0.0502	1482.9	1459.7	1437.1	1415	1393.3	1371.8	–
x2 = 0.1058	1484.8	1461.7	1439.2	–	1395.5	–	1352.9
x2 = 0.1504	1486.6	–	1441	1418.9	1397	–	1354.2
x2 = 0.249	–	1468.2	1445.9	1424	1402.3	1380.8	1359.5
x2 = 0.3004	1494	1471.3	1449.1	1427.2	–	–	–
x2 = 0.3524	–	1474.8	1452.7	1430.8	1409.2	–	1366.2
x2 = 0.3961	–	1478.3	1456.2	1434.4	1412.7	1391.2	1369.7
x2 = 0.4505	1505.3	1483	–	1439.3	1417.7	1396.2	1374.7
x2 = 0.5024	1510.7	–	1466.7	–	1423.4	1401.7	1380
x2 = 0.5502	1516.2	1494.3	1472.6	1451	1429.3	–	–
x2 = 0.6	–	1501.1	1479.6	1458.1	–	1414.9	1393
x2 = 0.6502	1530.5	1509.2	1488	1466.7	1445.3	1423.6	1401.7
x2 = 0.702	1539.8	1519.2	1498.4	–	1456.1	1434.6	1412.9
x2 = 0.7493	1549	1529.2	1509.1	–	1467.8	1446.5	1424.7
x2 = 0.7998	–	–	1522.5	1503.1	1483	1462.2	1440.7
x2 = 0.8499	1569.5	1554.1	1537.6	1520.1	1501.5	1482	–
x2 = 0.8996	–	1564.9	1552.9	1539.1	1523.7	1506.7	1488.2
x2 = 0.9498	–	1563.7	1561.1	1555.7	1547.7	1537.1	1524.2

CC[n+]1ccn(C)c1.O=S(=O)([O-])C(F)(F)F + CO
speed of sound [m/s]
Conditions	278.15 K	288.15 K	298.15 K	308.15 K	318.15 K
x2 = 0.0511	1477.5	1454	1431.1	1408.8	1387
x2 = 0.1016	1472	1448.7	–	1403.7	1382
x2 = 0.1557	1466.4	1443	–	1398	1376.2
x2 = 0.2035	–	–	1414.4	1392	1370.1
x2 = 0.3006	1447.8	–	1401.5	1379.1	1357.3
x2 = 0.3988	1432.7	–	1386	1363.4	1341.2
x2 = 0.5074	1411.3	–	–	1341.7	1319.4
x2 = 0.5993	1388.7	1364.7	1341.2	1318.2	1295.5
x2 = 0.6995	1356.5	1332	1308	–	1261.2
x2 = 0.8001	1312.5	1287.1	1262.1	–	1213.5
x2 = 0.8498	1285	1258.6	1232.8	1207.4	1182.5
x2 = 0.8995	1253.3	1225.3	1198	1171.2	1144.8
x2 = 0.9495	–	1186	–	–	1099.2
